The test system of experiment [1] is SW620 (colorectal cancer cell line). Nature of the experiment: KRAS Cell Titer Glo (CTG) cell proliferation assay, SW620. It is filed as cell-based. As to conditions: SW620 cells, 7-day CTG, geomean IC50. From the text: (§1) The CellTiter-Glo® (CTG) Luminescent Cell Viability Assay is a homogeneous method of determining the number of viable cells in culture based on quantitation of the ATP present, an indicator of metabolically active cells. The CTG is designed for use with multi-well formats, making it ideal for automated high-throughput screening (HTS), cell proliferation and cytotoxicity assays. The homogeneous assay procedure involves adding the single reagent (CellTiter-Glo® Reagent) directly to cells cultured in serum-supplemented medium. Cell washing, removal of medium and multiple pipetting steps are not required. The system detects as few as 15 cells per well in a 384-well format in 10 minutes after adding reagent and mixing.
(§2) Cells are grown in humidified 5% CO2 incubator at 37° C. using the culture conditions outlined below. All cell culture media reagents were purchased from Gibco. Cell lines purchased from ATCC: H358 (non-small cell lung cancer cell line), SW620 (colorectal cancer cell line), PANC08.13 (RPM11640+10% FBS+10 units/mL Insulin, pancreatic cancer cell line). Test and control compounds are dispensed as nanoliter drops according to desired final concentrations in 0.1% DMSO using Echo Acoustic Dispenser onto 384 assay plates (Corning, Cat #3764) prior to cell seeding. Cells were seeded in 40 μL volume per well at the following cell densities (cells per well): H358 (300), SW620 (750), PANC 08.13 (600). Cells are incubated in the presence of compound for 7-days. Viability is determined on Day 7 using CellTiter-Glo® (CTG) Luminescent Cell Viability Assay (Promega). CTG is added to a […] per well and incubated at room temperature for 15 minutes before luminescence is captured using an EnVision Reader with LUM384 US protocol. Data is analyzed using Activity Base to determine compound response and will be represented either as a percent effect (PCTEFF) or percent control (PCTOCTL) as described: Zero percent effect control (ZPE) (Negative control)—100% DMSO. Hundred percent effect (HPE) (Positive control)—1 uM Trametinib (GSK1120212, MEK inhibitor) (4 nl of 10 mM and 36 nl of DMSO per well). The following equations/nomenclature are used (% Effect; PCTEFF) and (% of Control; PCTOCTL): PCTEFF: 100*(Raw_Data_Value−HPE/ZPE−HPE), PCTOCTL: 100*Raw_Data_Value/User_Defined_Array), where the User_Defined_Array is either summarized HPE or ZPE.
(§3) Cells with “nd” indicate compound not tested in that particular assay at time of writing. It is to be understood that the geomean IC50 data may change slightly over time with increasing repeat data (ie: increasing n #).

Experiment [2] addresses KRAS G12D (Homo sapiens (Human), UniProt P01116, G12D). Nature of the experiment: SPR binding affinity and kinetics, GTPγS-loaded KRAS G12D. The conditions noted are these: GTPγS loaded protein, geomean. An excerpt:
(§4) No additional regeneration was used.
(§5) Compound dissociation was monitored for at least 3600 seconds. […] No additional regeneration was used.
(§6) The adequateness of the fit was judged by c2 values and the randomness of residue distribution.

Experiment [3] has as its target KRAS G12C (Homo sapiens (Human), UniProt P01116, G12C). Nature of the experiment: SPR binding affinity and kinetics, GTPγS-loaded KRAS G12C. As to conditions: GTPγS loaded protein, geomean.
Text: as §4, §5, §6

The subject of experiment [4] is PANC08.13 (pancreatic cancer cell line). Kind of experiment: KRAS Cell Titer Glo (CTG) cell proliferation assay, PANC08.13. It is filed as cell-based. The conditions noted are these: PANC08.13 cells, 7-day CTG, geomean IC50.
Text: as §1, §2, §3

Experiment [5] has as its system H358 (non-small cell lung cancer cell line). Nature of the experiment: KRAS Cell Titer Glo (CTG) cell proliferation assay, H358. The conditions noted are these: H358 cells, 7-day CTG, geomean IC50. It is filed as cell-based.
Text: as §1, §2, §3

Experiment [6] concerns the target KRAS Wild Type (Homo sapiens (Human), UniProt P01116). Nature of the experiment: SPR binding affinity and kinetics, GTPγS-loaded KRAS Wild Type. The conditions noted are these: GTPγS loaded protein, geomean.
Text: as §4, §5, §6

For experiment [7], the target named is KRAS G12V (Homo sapiens (Human), UniProt P01116, G12V). Nature of the experiment: SPR binding affinity and kinetics, GTPγS-loaded KRAS G12V. The conditions noted are these: GTPγS loaded protein, geomean.
Text: as §4, §5, §6

[8] abbreviates: Homo sapiens, PANC-08-13, 168 h.

pIC50, pKd: −log10 of the molar value.

For `Fc1c(-c2c(C3CC3)c(Cl)cc3[nH]ncc23)nc2c3c(nc(OC[C@@]45C[C@@H](F)CN4CC4(CC4)C5)nc13)N1CCCOC[C@H]1CO2` [Example 35, (8aS)-2-{[(6′R,7′aR)-6′-fluorodihydro-1′H,3′H-spiro[cyclopropane-1,2′-pyrrolizin]-7′a(5′H)-yl]methoxy}-5-(6-chloro-5-cyclopropyl-1H-indazol-4-yl)-4-fluoro-8a,9,12,13-tetrahydro-8H,11H-7,10-dioxa-1,3,6,13a-tetraazanaphtho[1,8-ab]heptalene], the pIC50 in experiment [1] (Homo sapiens, SW-620, 168 h) is 7.31; in experiment [4] (setting [8]) it was 8.00; in experiment [5] (Homo sapiens, NCI-H358, 168 h), 6.90. For the same compound, the pKd is 8.10 in experiment [2], 7.92 in experiment [3], 7.96 in experiment [6] and 7.92 in experiment [7].

Regarding `C=C1CN2CCC[C@@]2(COc2nc3c4c(nc(-c5c(C6CC6)c(Cl)cc6[nH]ncc56)c(F)c4n2)OC[C@@H]2COCC[C@H](C)N32)C1` [Example 38, (8aS,13S)-5-(6-chloro-5-cyclopropyl-1H-indazol-4-yl)-4-fluoro-13-methyl-2-{[(7aS)-2-methylidenetetrahydro-1H-pyrrolizin-7a(5H)-yl]methoxy}-8a,9,12,13-tetrahydro-8H,11H-7,10-dioxa-1,3,6,13a-tetraazanaphtho[1,8-ab]heptalene], the negative-log IC50 (pIC50) in experiment [1] (Homo sapiens, SW-620, 168 h) was 7.74; in experiment [4] (setting [8]), 8.70; in experiment [5] (Homo sapiens, NCI-H358, 168 h) it was 8.10. Moreover, the pKd in experiment [2] is 8.70; in experiment [3] it was 8.52; in experiment [6] it was 8.40; in experiment [7] it was 8.40.

Regarding `Fc1c(-c2c(C3CC3)c(Cl)cc3[nH]ncc23)nc2c3c(nc(OC[C@@]45CCCN4CC(=C4CC4)C5)nc13)N1CCCOC[C@H]1CO2` [Example 40, (8aS)-5-(6-chloro-5-cyclopropyl-1H-indazol-4-yl)-2-{[(7aS)-2-cyclopropylidenetetrahydro-1H-pyrrolizin-7a(5H)-yl]methoxy}-4-fluoro-8a,9,12,13-tetrahydro-8H,11H-7,10-dioxa-1,3,6,13a-tetraazanaphtho[1,8-ab]heptalene], the pIC50 was 7.22 in experiment [1] (Homo sapiens, SW-620, 168 h); 7.89 in experiment [4] (setting [8]); 7.28 in experiment [5] (Homo sapiens, NCI-H358, 168 h). The negative-log Kd (pKd) in experiment [2] was 8.40; in experiment [3], 8.15; in experiment [6] it was 8.22; in experiment [7] it was 8.22.

Take `Fc1c(-c2c(C3CC3)c(Cl)cc3[nH]ncc23)nc2c3c(nc(OC[C@@]45CCCN4CC(=C4CCOCC4)C5)nc13)N1CCCOC[C@H]1CO2` [Example 42, (8aS)-5-(6-chloro-5-cyclopropyl-1H-indazol-4-yl)-4-fluoro-2-{[(7aS)-2-(oxan-4-ylidene)tetrahydro-1H-pyrrolizin-7a(5H)-yl]methoxy}-8a,9,12,13-tetrahydro-8H,11H-7,10-dioxa-1,3,6,13a-tetraazanaphtho[1,8-ab]heptalene]: the pIC50 in experiment [1] (Homo sapiens, SW-620, 168 h) was 6.63; in experiment [4] (setting [8]), 7.36; in experiment [5] (Homo sapiens, NCI-H358, 168 h), 6.54. Besides, the negative logarithm of the Kd (pKd) in experiment [2] was 7.62; in experiment [3] it was 7.48; in experiment [6], 7.17; in experiment [7], 7.49.

For `CN(C)C(=O)/C=C1\CN2CCC[C@@]2(COc2nc3c4c(nc(-c5c(C6CC6)c(Cl)cc6[nH]ncc56)c(F)c4n2)OC[C@@H]2COCCCN32)C1` [Example 43, (2Z)-2-[(7aS)-7a-({[(8aS)-5-(6-chloro-5-cyclopropyl-1H-indazol-4-yl)-4-fluoro-8a,9,12,13-tetrahydro-8H,11H-7,10-dioxa-1,3,6,13a-tetraazanaphtho[1,8-ab]heptalen-2-yl]oxy}methyl)tetrahydro-1H-pyrrolizin-2(3H)-ylidene]-N,N-dimethylacetamide], the pIC50 in experiment [1] (Homo sapiens, SW-620, 168 h) was under 5.00; in experiment [4] (setting [8]), 5.26; in experiment [5] (Homo sapiens, NCI-H358, 168 h) it was under 5.00. Moreover, the pKd is 6.31 in experiment [2], 6.27 in experiment [3], 6.13 in experiment [6] and 6.17 in experiment [7].

For the compound `OC/C=C1\CN2CCC[C@@]2(COc2nc3c4c(nc(-c5c(C6CC6)c(Cl)cc6[nH]ncc56)c(F)c4n2)OC[C@@H]2COCCCN32)C1` [Example 44, (2Z)-2-[(7aS)-7a-({[(8aS)-5-(6-chloro-5-cyclopropyl-1H-indazol-4-yl)-4-fluoro-8a,9,12,13-tetrahydro-8H,11H-7,10-dioxa-1,3,6,13a-tetraazanaphtho[1,8-ab]heptalen-2-yl]oxy}methyl)tetrahydro-1H-pyrrolizin-2(3H)-ylidene]ethan-1-ol], the pIC50 in experiment [1] (Homo sapiens, SW-620, 168 h) is 7.03; in experiment [4] (setting [8]) it was 6.90; in experiment [5] (Homo sapiens, NCI-H358, 168 h), 7.37. Further, the pKd in experiment [2] is 8.70; in experiment [3], 8.52; in experiment [6] it was 8.52; in experiment [7], 8.52.

As for `C=C1CN2CCC[C@@]2(COc2nc3c4c(nc(-c5c6c(cc7[nH]ncc57)CCCC6)c(F)c4n2)OC[C@@H]2COCCCN32)C1` [Example 50, (8aS)-4-fluoro-2-{[(7aS)-2-methylidenetetrahydro-1H-pyrrolizin-7a(5H)-yl]methoxy}-5-(5,6,7,8-tetrahydro-1H-benzo[f]indazol-4-yl)-8a,9,12,13-tetrahydro-8H,11H-7,10-dioxa-1,3,6,13a-tetraazanaphtho[1,8-ab]heptalene], the negative logarithm of the IC50 (pIC50) in experiment [1] (Homo sapiens, SW-620, 168 h) is 7.12; in experiment [4] (setting [8]), 6.98; in experiment [5] (Homo sapiens, NCI-H358, 168 h), 6.69. Also, the pKd was 7.51 in experiment [2], 7.33 in experiment [3], 7.28 in experiment [6] and 7.38 in experiment [7].

For the compound “(8aS)-5-(5-chloro-6-fluoro-1H-indazol-4-yl)-4-fluoro-2-{[(7aS)-2-methylidenetetrahydro-1H-pyrrolizin-7a(5H)-yl]methoxy}-8a,9,12,13-tetrahydro-8H,11H-7,10-dioxa-1,3,6,13a-tetraazanaphtho[1,8-ab]heptalene [Example 9]”, the pIC50 in experiment [1] is 6.04; in experiment [4], 6.85; in experiment [5] it was 6.12. Further, the pKd was 6.57 in experiment [2], 6.37 in experiment [3], 6.41 in experiment [6] and 6.52 in experiment [7].

As to “(8aS)-5-(6-chloro-5-cyclopropyl-1H-indazol-4-yl)-4-fluoro-2-{[(1S,7aS*)-1-methoxy-6-methylidenetetrahydro-1H-pyrrolizin-7a(5H)-yl]methoxy}-8a,9,12,13-tetrahydro-8H,11H-7,10-dioxa-1,3,6,13a-tetraazanaphtho[1,8-ab]heptalene [Example 61]”, the negative logarithm of the IC50 (pIC50) is 7.42 in experiment [1], 7.96 in experiment [4] and 7.68 in experiment [5]. Besides, the pKd in experiment [2] was 8.52; in experiment [3], 8.40; in experiment [6], 8.30; in experiment [7] it was 8.30.

The values above are taken from patent publication US20250034173A1, “PYRIDO[4,3-D]PYRIMIDINE COMPOUNDS” (PFIZER INC., priority 2023, published 2025).
